# Measurements reported in patent US8741934B2, “Inhibitors of ion channels” (Pfizer Limited, priority 2007, dated 2014).
# Target: T1, hSCN3A sodium channels (Homo sapiens, UniProt Q9NY46)
# T1 construct: expressed in transfected cells
# Test: hSCN3A electrophysiology, whole-cell patch-clamp or PatchXpress 7000, estimated IC-50 (Table B)
# Format: cell-based
# Details: estimated IC-50; hSCN3A cells, whole-cell patch-clamp or PatchXpress 7000; read-out: SCN3A EIC-50
# How it was run: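 Stably transfected HEK cells, whole-cell voltage clamp at 22-24° C, manual or PatchXpress 7000. Cells held at empirically determined inactivation V1/2; current evoked by 20 msec step to 0 mV after 8 sec prepulse to V1/2.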
# T1 sequence (Q9NY46 whole entry): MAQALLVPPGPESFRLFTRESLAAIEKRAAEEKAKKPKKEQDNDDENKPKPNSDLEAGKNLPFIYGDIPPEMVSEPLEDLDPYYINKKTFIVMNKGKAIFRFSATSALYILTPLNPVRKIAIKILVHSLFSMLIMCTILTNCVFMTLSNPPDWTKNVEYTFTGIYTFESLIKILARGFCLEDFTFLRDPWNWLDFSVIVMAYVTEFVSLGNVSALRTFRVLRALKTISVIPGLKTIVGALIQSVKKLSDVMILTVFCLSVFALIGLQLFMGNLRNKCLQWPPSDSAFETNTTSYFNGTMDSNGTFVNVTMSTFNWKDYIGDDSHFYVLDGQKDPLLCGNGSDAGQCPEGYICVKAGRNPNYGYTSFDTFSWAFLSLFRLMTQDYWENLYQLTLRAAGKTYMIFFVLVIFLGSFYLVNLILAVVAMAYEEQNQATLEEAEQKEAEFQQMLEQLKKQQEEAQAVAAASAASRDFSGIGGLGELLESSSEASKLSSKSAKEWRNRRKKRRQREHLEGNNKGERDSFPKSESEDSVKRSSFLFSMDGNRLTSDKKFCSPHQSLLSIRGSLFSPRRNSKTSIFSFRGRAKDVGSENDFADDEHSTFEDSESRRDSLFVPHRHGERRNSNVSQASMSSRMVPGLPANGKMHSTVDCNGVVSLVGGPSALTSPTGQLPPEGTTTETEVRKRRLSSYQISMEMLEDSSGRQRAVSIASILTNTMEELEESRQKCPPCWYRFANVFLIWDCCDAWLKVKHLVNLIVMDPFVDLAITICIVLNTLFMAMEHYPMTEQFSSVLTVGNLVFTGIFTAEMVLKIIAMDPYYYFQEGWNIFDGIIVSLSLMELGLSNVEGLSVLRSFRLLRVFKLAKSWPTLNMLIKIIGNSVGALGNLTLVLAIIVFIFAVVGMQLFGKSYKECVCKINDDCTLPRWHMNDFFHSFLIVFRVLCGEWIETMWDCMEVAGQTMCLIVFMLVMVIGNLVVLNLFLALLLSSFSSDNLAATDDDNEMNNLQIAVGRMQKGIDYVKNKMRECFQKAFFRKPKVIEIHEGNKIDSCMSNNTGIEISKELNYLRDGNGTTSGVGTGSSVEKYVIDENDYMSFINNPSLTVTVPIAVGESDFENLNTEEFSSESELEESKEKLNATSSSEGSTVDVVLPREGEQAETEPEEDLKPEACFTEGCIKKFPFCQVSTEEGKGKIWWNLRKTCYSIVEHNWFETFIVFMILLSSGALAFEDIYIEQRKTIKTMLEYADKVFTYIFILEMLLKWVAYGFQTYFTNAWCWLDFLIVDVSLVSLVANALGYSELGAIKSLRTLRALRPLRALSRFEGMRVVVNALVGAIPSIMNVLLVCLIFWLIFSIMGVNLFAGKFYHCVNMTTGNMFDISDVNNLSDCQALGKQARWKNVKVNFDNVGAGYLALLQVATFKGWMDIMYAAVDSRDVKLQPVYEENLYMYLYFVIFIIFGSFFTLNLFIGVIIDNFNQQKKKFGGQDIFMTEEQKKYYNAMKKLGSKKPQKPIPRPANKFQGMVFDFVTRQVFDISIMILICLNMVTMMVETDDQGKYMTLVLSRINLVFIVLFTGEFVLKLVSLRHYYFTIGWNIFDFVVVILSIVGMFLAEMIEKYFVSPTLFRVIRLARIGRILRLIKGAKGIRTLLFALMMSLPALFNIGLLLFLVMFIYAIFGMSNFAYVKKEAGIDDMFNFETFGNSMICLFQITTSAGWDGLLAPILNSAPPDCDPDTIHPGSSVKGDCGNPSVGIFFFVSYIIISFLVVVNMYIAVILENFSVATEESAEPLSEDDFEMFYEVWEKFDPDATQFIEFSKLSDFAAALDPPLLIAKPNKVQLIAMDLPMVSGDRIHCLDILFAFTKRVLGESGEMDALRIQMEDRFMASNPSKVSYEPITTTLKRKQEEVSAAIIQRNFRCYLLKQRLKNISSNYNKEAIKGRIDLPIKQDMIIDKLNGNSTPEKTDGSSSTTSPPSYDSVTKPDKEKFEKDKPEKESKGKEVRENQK
row,Molecule,IC50
1,"Cc1ccc(C2(O)CCN(C(=O)c3ccc(S(=O)(=O)Nc4nccs4)cc3)CC2)cc1 [Example 252, 4-{[4-Hydroxy-4-(4-methylphenyl)piperidin-1-yl]carbonyl}-N-1,3-thiazol-2-yl-benzenesulfonamide]",2.11 µM
2,"O=C(NCc1ccc(C(F)(F)F)c(Cl)c1)c1ccc(S(=O)(=O)Nc2nccs2)cc1 [Example 396, N-[3-chloro-4-(trifluoromethyl)benzyl]-4-[(1,3-thiazol-2-ylamino)sulfonyl] benzamide]",0.03 µM
3,"O=C(NCc1ccc(C(F)(F)F)c(Cl)c1)c1ccc(S(=O)(=O)Nc2ncc(Cl)s2)cc1 [Example 30, 4-{[(5-Chloro-1,3-thiazol-2-yl)amino]sulfonyl}-N-[3-chloro-4-(trifluoromethyl)benzyl]benzamide]",0.03 µM
4,"N#CCCN(Cc1ccccc1)C(=O)c1ccc(S(=O)(=O)Nc2nccs2)cc1 [Example 218, N-benzyl-N-(2-cyanoethyl)-4-[(1,3-thiazol-2-yl-amino)sulfonyl]benzamide]",21.2 µM
5,"O=C(NCc1ccc(C(F)(F)F)cc1)c1ccc(S(=O)(=O)Nc2cscn2)cc1 [Example 13, 4-[(1,3-Thiazol-4-ylamino)sulfonyl]-N-[4-(trifluoromethyl)benyzyl]benzamide]",0.68 µM
6,"O=C(NCc1ccc(F)c(C(F)(F)F)c1)c1ccc(S(=O)(=O)Nc2ncc(Cl)s2)c(Cl)c1 [Example 370, 3-Chloro-4-{[(5-chloro-1,3-thiazol-2-yl)amino]sulfonyl}-N-[4-fluoro-3-(trifluoromethyl)benzyl]benzamide]",1.22 µM
7,"O=C(NCc1ccc(F)c(F)c1)c1ccc(S(=O)(=O)Nc2nccs2)cc1F [Example 329, N-(3,4-difluorobenzyl)-2-fluoro-4-[(1,3-thiazol-2-ylamino)sulfonyl] benzamide]",0.36 µM
8,"O=C(NCc1ccc(OC(F)(F)F)cc1)c1ccc(S(=O)(=O)Nc2nccs2)c(Cl)c1 [Example 284, 3-Chloro-4-[(1,3-thiazol-2-ylamino)sulfonyl]-N-[4-(trifluoromethoxy)benzyl]benzamide]",1.22 µM
9,"CC(NC(=O)c1ccc(S(=O)(=O)Nc2ncc(Cl)s2)cc1)c1ccc(C(F)(F)F)cc1 (stereo not shown) [Example 44, 4-{[(5-Chloro-1,3-thiazol-2-yl)amino]sulfonyl}-N-{1-[4-(trifluoromethyl)phenyl]ethyl}benzamide]",0.27 µM
10,"O=C(NCc1ccc(C(F)(F)F)cc1)c1ccc(S(=O)(=O)Nc2ncc(Cl)s2)c(Cl)c1 [Example 373, 3-Chloro-4-{[(5-chloro-1,3-thiazol-2-yl)amino]sulfonyl}-N-[4-(trifluoromethyl)benzyl] benzamide]",0.49 µM
11,O=C(NCc1ccc(OC(F)(F)F)c(F)c1)c1ccc(S(=O)(=O)Nc2ncc(Cl)s2)cc1 [Example 38],0.06 µM
12,"O=C(NCc1ccc(F)c(Cl)c1)c1ccc(S(=O)(=O)Nc2nccs2)c(Cl)c1 [Example 294, 3-Chloro-N-(3-chloro-4-fluorobenzyl)-4-[(1,3-thiazol-2-yl-amino)sulfonyl]benzamide]",1.84 µM
13,"N#Cc1cc(CNC(=O)c2ccc(S(=O)(=O)Nc3nccs3)cc2)ccc1F [Example 55, N-(3-cyano-4-fluorobenzyl)-4-[(1,3-thiazol-2-ylamino)sulfonyl]benzamide]",1.41 µM
14,"O=C(NCc1cccc(C(F)(F)F)c1)c1ccc(S(=O)(=O)Nc2ncc(Cl)s2)cc1F [Example 354, 4-{[(5-Chloro-1,3-thiazol-2-yl)amino]sulfonyl}-2-fluoro-N-[3-(trifluoromethyl)benzyl]benzamide]",0.21 µM
15,"O=C(NC1CCc2ccccc21)c1ccc(S(=O)(=O)Nc2nccs2)cc1 (stereo not shown) [Example 158, N-(2,3-dihydro-1H-inden-1-yl)-4-[(1,3-thiazol-2-ylamino)sulfonyl]benzamide]",2.39 µM
16,"O=C(NCc1cccc(F)c1)c1ccc(S(=O)(=O)Nc2nccs2)cc1 [Example 90, N-(3-fluorobenzyl)-4-[(1,3-thiazol-2-ylamino)sulfonyl]benzamide]",1.66 µM
17,"O=C(NCc1ccc(OC(F)(F)F)c(Cl)c1)c1ccc(S(=O)(=O)Nc2ncns2)cc1Cl [Example 378, 2-Chloro-N-[3-chloro-4-(trifluoromethoxy)benzyl]-4-[(1,2,4-thiadiazol-5-ylamino)sulfonyl] benzamide]",0.18 µM
18,"O=C(c1ccc(S(=O)(=O)Nc2nccs2)cc1)N1CCCC(Cc2cccc(F)c2)C1 (stereo not shown) [Example 47, 4-{[3-(3-Fluorobenzyl)piperidin-1-yl]carbonyl}-N-1,3-thiazol-2-ylbenzenesulfonamide]",0.92 µM
19,"O=C(NCc1ccc(C(F)(F)F)cc1)c1ccc(S(=O)(=O)Nc2cncs2)cc1 [Example 14, 4-[(1,3-Thiazol-5-ylamino)sulfonyl]-N-[4-(trifluoromethyl)benzyl]benzamide]",28.1 µM
20,"O=C(NCc1cccc(OC(F)(F)F)c1)c1ccc(S(=O)(=O)Nc2nccs2)cc1 [Example 73, 4-[(1,3-Thiazol-2-ylamino)sulfonyl]-N-[3-(trifluoromethoxy)benzyl]benzamide]",0.18 µM

row,Molecule,IC50
1,"O=C(NCc1cccs1)c1ccc(S(=O)(=O)Nc2nccs2)cc1 [Example 386, 4-[(1,3-Thiazol-2-ylamino)sulfonyl]-N-(2-thienylmethyl)benzamide]",3.41 µM
2,"Cc1nsc(NS(=O)(=O)c2ccc(C(=O)NCc3ccc(C(F)(F)F)cc3)cc2)n1 [Example 6, 4-{[(3-Methyl-1,2,4-thiadiazol-5-yl)amino]sulfonyl}-N-[4-(trifluoromethyl)benzyl]benzamide]",1.11 µM
3,"CC1(c2ccc(Cl)cc2)CCN(C(=O)c2ccc(S(=O)(=O)Nc3nccs3)cc2)CC1 [Example 195, 4-{[4-(4-Chlorophenyl)-4-methylpiperidin-1-yl]carbonyl}-N-1,3-thiazol-2-yl-benzenesulfonamide]",0.28 µM
4,"O=C(NCc1ccc(C(F)(F)F)cc1)c1cccc(S(=O)(=O)Nc2nccs2)c1 [Example 349, 3-[(1,3-Thiazol-2-ylamino)sulfonyl]-N-[4-(trifluoromethyl)benzyl]benzamide]",9.87 µM
5,"O=C(NCc1ccc(OC(F)(F)F)cc1)c1ccc(S(=O)(=O)Nc2ncc(Cl)s2)c(Cl)c1 [Example 362, 3-Chloro-4-{[(5-chloro-1,3-thiazol-2-yl)amino]sulfonyl}-N-[4-(trifluoromethoxy)benzyl]benzamide]",1.09 µM
6,"O=C(NC1Cc2ccccc2C1)c1ccc(S(=O)(=O)Nc2nccs2)cc1 [Example 173, N-(2,3-dihydro-1H-inden-2-yl)-4-[(1,3-thiazol-2-ylamino)sulfonyl]benzamide]",2.67 µM
7,"CC(C)(C)CCNC(=O)c1ccc(S(=O)(=O)Nc2ncc(Cl)s2)c(F)c1 [Example 389, 4-{[(5-Chloro-1,3-thiazol-2-yl)amino]sulfonyl}-N-(3,3-dimethylbutyl)-3-fluorobenzamide]",0.61 µM
8,"Cc1ncc(NS(=O)(=O)c2ccc(C(=O)NCc3ccc(C(F)(F)F)cc3)cc2)s1 [Example 16, 4-{[(2-Methyl-1,3-thiazol-5-yl)amino]sulfonyl}-N-[4-(trifluoromethyl)benzyl]benzamide]",> 10 µM
9,"Cc1cccc(OC2CCCN(C(=O)c3ccc(S(=O)(=O)Nc4nccs4)cc3)C2)c1 (stereo not shown) [Example 51, 4-{[3-(3-Methylphenoxy)piperidin-1-yl]carbonyl}-N-1,3-thiazol-2-ylbenzenesulfonamide]",6.58 µM
10,"O=C(NCCc1ccc(Cl)cc1)c1ccc(S(=O)(=O)Nc2nccs2)cc1 [Example 72, N-[2-(4-chlorophenyl)ethyl]-4-[(1,3-thiazol-2-ylamino)sulfonyl]benzamide]",0.66 µM
11,"Cc1c(Cl)cccc1CNC(=O)c1ccc(S(=O)(=O)Nc2nccs2)cc1 [Example 61, N-(3-chloro-2-methylbenzyl)-4-[(1,3-thiazol-2-ylamino)sulfonyl]benzamide]",0.16 µM
12,"O=C(NCc1ccc(Cl)c(Cl)c1)c1ccc(S(=O)(=O)Nc2ncc(Cl)s2)c(Cl)c1 [Example 368, 3-Chloro-4-{[(5-chloro-1,3-thiazol-2-yl)amino]sulfonyl}-N-(3,4-dichlorobenzyl) benzamide]",0.4 µM
13,"COc1cccc(C2CCCN(C(=O)c3ccc(S(=O)(=O)Nc4nccs4)cc3)C2)c1 (stereo not shown) [Example 217, 4-{[3-(3-Methoxyphenyl)piperidin-1-yl]carbonyl}-N-1,3-thiazol-2-yl-benzenesulfonamide]",2.91 µM
14,"O=C(NCc1ccc(F)c(C(F)(F)F)c1)c1ccc(S(=O)(=O)Nc2nccs2)c(Cl)c1 [Example 290, 3-Chloro-N-[4-fluoro-3-(trifluoromethyl)benzyl]-4-[(1,3-thiazol-2-yl-amino)sulfonyl]benzamide]",1.39 µM
15,"O=C(NCc1ccc(F)c(OC(F)(F)F)c1)c1ccc(S(=O)(=O)Nc2ncc(Cl)s2)c(Cl)c1 [Example 367, 3-Chloro-4-{[(5-chloro-1,3-thiazol-2-yl)amino]sulfonyl}-N-[4-fluoro-3-(trifluoromethoxy)benzyl]benzamide]",1.51 µM
16,"4-[(1,3-Thiazol-2-ylamino)sulfonyl]-N-(4-isopropyloxybenzyl)benzamide [Example 69]",0.77 µM
17,"O=C(NCc1ccc(OC(F)(F)F)c(F)c1)c1ccc(S(=O)(=O)Nc2nccs2)c(Cl)c1 [Example 286, 3-Chloro-N-[3-fluoro-4-(trifluoromethoxy)benzyl]-4-[(1,3-thiazol-2-yl-amino)sulfonyl]benzamide]",0.14 µM
18,"O=C(NCc1cc(F)cc(F)c1)c1ccc(S(=O)(=O)Nc2nccs2)cc1 [Example 83, N-(3,5-difluorobenzyl)-4-[(1,3-thiazol-2-ylamino)sulfonyl]benzamide]",0.62 µM
19,"O=C(NCc1ccc(OC(F)(F)F)cc1)c1ccc(S(=O)(=O)Nc2ncc(Cl)s2)c(F)c1 [Example 314, 4-{[(5-Chloro-1,3-thiazol-2-yl)amino]sulfonyl}-3-fluoro-N-[4-(trifluoromethoxy)benzyl]benzamide]",0.07 µM
20,"N#Cc1ccc(CNC(=O)c2ccc(S(=O)(=O)Nc3nccs3)cc2)cc1 [Example 416, N-(4-cyanobenzyl)-4-[(1,3-thiazol-2-ylamino)sulfonyl] benzamide]",0.86 µM
